Results taken from patent publication US9567319B2, “Compound having higher inhibitory activity on protein kinase G and preparation method thereof” (Jenkem Technology Co., Ltd., (Tianjin), priority 2014, dated 2017).
Values after ≈ are worked out from the molar mass of the structure shown. Values joined by “and” are separate entries in the source; they are usually repeats but may differ in a detail not shown here. Equal values may be shown once.

What was measured:
[1] = Test of water solubility of the compounds
Description: At room temperature, about 0.1 g of each sample to be tested (solid materials should be ground as powder) was added to a 10 mL cylinder with a ground glass stopper. Water was gradually added. After each addition of 0.5 mL water, the resulting solution was stirred for 10 min for mixing, and was then visually examined for the presence of any undissolved sample. If there still exists undissolved sample or undissolved portions of the sample after 10 mL water was added, the test would be continued in a 100 mL cylinder.

[2] = system: hyperalgesia induced by Freund's complete adjuvant (CFA) in rats; assay: Weight bearing test, CFA induced hyperalgesia in rats; type: in vivo, SD rats; details: for Weight Bearing Test Values (Mean ± SD), Baseline: pretreatment, n=8; for Weight Bearing Test Values (Mean ± SD), 15 min: 15 min post treatment; for Weight Bearing Test Values (Mean ± SD), 2 h: 2 h post treatment
Description: Compounds 46 and JK-02A were prepared according to the disclosure of US patent application No. US2008/0176920, and compound JK-02H was prepared according to Example 1. A repeat efficacy study was carried out on the same batch of animals with a single-dose treatment followed by a washing-out period. The 14 days in life studies included two stages: a single low dose treatment assessment on the 7th day and then a single high dose treatment test on the 14th day after CFA injection. On the 7th day after CFA injection, the rats were randomly assigned to respective groups using a computer generated randomization procedure based on the body weight and the baseline values of Von Frey and weight bearing test. Animals received corresponding single dose treatments (vehicle and 3 test articles) on the 7th and 14th days after CFA injection, respectively, and the effect of the test compounds were evaluated. Hyperalgesia of all the study animals was assessed following a single low dose treatment with the test articles on day 7, while a single high dose effect of the test article was evaluated on day 14. The mechanical hyperalgesia and weight bearing were measured on day 7 and day 14 after CFA injection, followed by administration of control or test articles. Von Frey filaments and weight bearing were measured on all the study animals at three time points on day 7, and four time points on day 14. An extra time point assessment was conducted on day 14, considering the strong analgesic effect of the test articles at a higher dose noticed during the test at the 3th time point. Rats distributed body weight unequally on the CFA-injected and contra lateral paws, which was measured by a weight balance changing instrument (Bio-medical, USA). The animals were tested in a box constructed to register the weight load exerted by the hind paws by means of force plates inserted in the floor. The mean weight bearing (unit in “g”) between the CFA-injected paw and the contra-lateral paw was determined in 10 seconds. The weight bearing test of all study animals was conducted at the same time intervals as the mechanical hyperalgesia test. All the results were expressed as mean±SD. One-way analysis of variance (ANOVA) followed by a multiple comparison test were applied among the groups, p<0.05 accepted as significant.

[3] = system: hyperalgesia induced by Freund's complete adjuvant (CFA) in rats; assay: Von Frey filament test, CFA induced hyperalgesia in rats; type: in vivo, SD rats; details: for Von Frey Filament Test Values (Mean ± SD), Baseline: pretreatment, n=8; for Von Frey Filament Test Values (Mean ± SD), 15 min: 15 min post treatment; for Von Frey Filament Test Values (Mean ± SD), 2 h: 2 h post treatment
Description: Compounds 46 and JK-02A were prepared according to the disclosure of US patent application No. US2008/0176920, and compound JK-02H was prepared according to Example 1. A repeat efficacy study was carried out on the same batch of animals with a single-dose treatment followed by a washing-out period. The 14 days in life studies included two stages: a single low dose treatment assessment on the 7th day and then a single high dose treatment test on the 14th day after CFA injection. On the 7th day after CFA injection, the rats were randomly assigned to respective groups using a computer generated randomization procedure based on the body weight and the baseline values of Von Frey and weight bearing test. Animals received corresponding single dose treatments (vehicle and 3 test articles) on the 7th and 14th days after CFA injection, respectively, and the effect of the test compounds were evaluated. Hyperalgesia of all the study animals was assessed following a single low dose treatment with the test articles on day 7, while a single high dose effect of the test article was evaluated on day 14. The mechanical hyperalgesia and weight bearing were measured on day 7 and day 14 after CFA injection, followed by administration of control or test articles. Von Frey filaments and weight bearing were measured on all the study animals at three time points on day 7, and four time points on day 14. An extra time point assessment was conducted on day 14, considering the strong analgesic effect of the test articles at a higher dose noticed during the test at the 3th time point. Mechanical hyperalgesia of the left hind paw was measured before and during the course of study in all animal groups by determining withdrawal thresholds to Von Frey filament (Bioseb, France). Increasing tensile force perpendicular to the plantar surface of the paw was applied to the filaments. The threshold for paw withdrawal was calculated by taking the average of 2-3 repeated stimuli (unit in “g”). On day 7, Von Frey Filament measurements were conducted three times, at the time points of pretreatment, 15 min and 2 hours post treatment. Following a one-week washing out period, on day 14 after CFA injection, Von Frey Filament tests were performed again four times post a single high dose administration. Rats treated with vehicle or high dose test articles were measured at the time points of pretreatment, 15 min, 2 and 5 hours post treatment. All the results were expressed as mean±SD. One-way analysis of variance (ANOVA) followed by a multiple comparison test were applied among the groups, p<0.05 accepted as significant.

[4] = day 7 after CFA, low dose groups (46 and JK-02A 10 mg/kg, JK-02H 5 mg/kg)
[5] = day 7 after CFA, single low dose i.v. (46 and JK-02A 10 mg/kg, JK-02H 5 mg/kg)
[6] = day 14 after CFA, high dose groups (46 and JK-02A 40 mg/kg, JK-02H 20 mg/kg)
[7] = day 14 after CFA, single high dose i.v. (46 and JK-02A 40 mg/kg, JK-02H 20 mg/kg)
[8] = day 14 after CFA, single high dose i.v. (46 and JK-02A 40 mg/kg, JK-02H 20 mg/kg), 5 h post treatment
[9] = individual animal, high dose i.v. (46 and JK-02A 40 mg/kg, JK-02H 20 mg/kg)
[10] = individual animal, low dose i.v. (46 and JK-02A 10 mg/kg, JK-02H 5 mg/kg)
[11] = individual animal, high dose i.v. (46 and JK-02A 40 mg/kg, JK-02H 20 mg/kg), two repeated stimuli
[12] = individual animal, low dose i.v. (46 and JK-02A 10 mg/kg, JK-02H 5 mg/kg), two repeated stimuli

For `CCCOc1ccc(O)c(F)c1C(=O)c1ccc(C(=O)N[C@@H]2CNC[C@H]2NC(=O)c2ccc3cn[nH]c3c2)cc1` [compound 46], the “Volume of added water” value ([1]; about 0.1 g sample, room temperature, water added until dissolved) was 66.5 mL, the solubility ([1]; water, thermodynamic from solid) was 1500 µg/mL (≈ 2750 µM) and the “Weight Bearing Test Values (Mean ± SD), Baseline” value [2, 4] was 48.54 ± 7.73 g. The “Weight Bearing Test Values (Mean ± SD), 15 min” value [2, 5] was 44.76 ± 8.54 g, the “Weight Bearing Test Values (Mean ± SD), 2 h” value [2, 5] was 41.09 ± 8.58 g and the “Weight Bearing Test Values (Mean ± SD), Baseline” value [2, 6] was 46.73 ± 5.58 g. The “Weight Bearing Test Values (Mean ± SD), 15 min” value [2, 7] was 34.03 ± 5.67 g, the “Weight Bearing Test Values (Mean ± SD), 2 h” value [2, 7] was 44.46 ± 11.29 g and the “Weight Bearing Test Values (Mean ± SD), 5 h” value [2, 8] was 41.06 ± 6.98 g. For the same compound, the “Weight Bearing Values of Individual Animal, Day 14, 15 min, Left” value [2, 9] was 62.4 g and 64.0 g and 61.5 g and 63.7 g and 59.2 g and 39.7 g and 52.6 g and 68.4 g, the “Weight Bearing Values of Individual Animal, Day 14, 15 min, Right” value [2, 9] was 96.4 g and 104.7 g and 95.1 g and 95.7 g and 96.9 g and 71.9 g and 75.2 g and 107.8 g and the “Weight Bearing Values of Individual Animal, Day 14, 15 min, Δ” value [2, 9] was 34.0 g and 40.7 g and 33.6 g and 32.0 g and 37.7 g and 32.2 g and 22.6 g and 39.4 g. The “Weight Bearing Values of Individual Animal, Day 14, 2 h, Left” value [2, 9] was 59.9 g and 68.1 g and 65.7 g and 44.8 g and 56.2 g and 36.9 g and 65.4 g and 67.0 g, the “Weight Bearing Values of Individual Animal, Day 14, 2 h, Right” value [2, 9] was 107.1 g and 101.0 g and 112.2 g and 110.9 g and 98.5 g and 87.3 g and 94.8 g and 107.9 g and the “Weight Bearing Values of Individual Animal, Day 14, 2 h, Δ” value [2, 9] was 47.2 g and 32.9 g and 46.5 g and 66.1 g and 42.3 g and 50.4 g and 29.4 g and 40.9 g. The “Weight Bearing Values of Individual Animal, Day 14, 5 h, Left” value [2, 9] was 55.9 g and 34.5 g and 56.8 g and 58.2 g and 47.3 g and 31.3 g and 41.6 g and 73.0 g, the “Weight Bearing Values of Individual Animal, Day 14, 5 h, Right” value [2, 9] was 102.4 g and 85.3 g and 101.8 g and 88.4 g and 90.0 g and 66.5 g and 76.3 g and 116.4 g and the “Weight Bearing Values of Individual Animal, Day 14, 5 h, Δ” value [2, 9] was 46.5 g and 50.8 g and 45.0 g and 30.2 g and 42.7 g and 35.2 g and 34.7 g and 43.4 g. For the same compound, the “Weight Bearing Values of Individual Animal, Day 7, 15 min, Left” value [2, 10] was 47.4 g and 40.2 g and 67.4 g and 60.4 g and 40.3 g and 39.0 g and 24.3 g and 58.1 g, the “Weight Bearing Values of Individual Animal, Day 7, 15 min, Right” value [2, 10] was 93.5 g and 94.1 g and 110.9 g and 89.1 g and 91.2 g and 81.7 g and 62.7 g and 112.0 g and the “Weight Bearing Values of Individual Animal, Day 7, 15 min, Δ” value [2, 10] was 46.1 g and 53.9 g (2×) and 43.5 g and 28.7 g and 50.9 g and 42.7 g and 38.4 g. The “Weight Bearing Values of Individual Animal, Day 7, 2 h, Left” value [2, 10] was 48.5 g and 39.0 g and 65.0 g and 66.3 g and 48.4 g and 43.4 g and 38.0 g and 54.8 g, the “Weight Bearing Values of Individual Animal, Day 7, 2 h, Right” value [2, 10] was 91.5 g and 81.8 g and 102.9 g and 97.7 g and 80.7 g and 82.3 g and 81.5 g and 113.7 g and the “Weight Bearing Values of Individual Animal, Day 7, 2 h, Δ” value [2, 10] was 43.0 g and 42.8 g and 37.9 g and 31.4 g and 32.3 g and 38.9 g and 43.5 g and 58.9 g. For the same compound, the “First Baseline, Balance Left, individual animal” value ([2]; individual animal, pretreatment day 7, left (CFA-injected) hind paw) was 31.3 g and 27.8 g and 41.8 g and 63.2 g and 73.9 g and 49.6 g and 33.9 g and 60.4 g, the “First Baseline, Balance Right, individual animal” value ([2]; individual animal, pretreatment day 7, right hind paw) was 83.6 g and 87.0 g and 91.8 g and 105.0 g and 114.0 g and 102.9 g and 71.5 g and 114.4 g and the “First Baseline, Balance Δ, individual animal” value ([2]; individual animal, pretreatment day 7, right minus left) was 52.3 g and 59.2 g and 50.0 g and 41.8 g and 40.1 g and 53.3 g and 37.6 g and 54.0 g. For the same compound, the “Second Baseline, Balance Left, individual animal” value ([2]; individual animal, pretreatment day 14, left (CFA-injected) hind paw) was 61.3 g and 45.0 g and 70.0 g and 51.2 g and 34.7 g and 24.8 g and 43.5 g and 65.5 g, the “Second Baseline, Balance Right, individual animal” value ([2]; individual animal, pretreatment day 14, right hind paw) was 115.3 g and 95.2 g and 119.5 g and 104.5 g and 76.6 g and 67.1 g and 84.3 g and 107.3 g and the “Second Baseline, Balance Δ, individual animal” value ([2]; individual animal, pretreatment day 14, right minus left) was 54.0 g and 50.2 g and 49.5 g and 53.3 g and 41.9 g and 42.3 g and 40.8 g and 41.8 g. For the same compound, the “Von Frey Filament Test Values (Mean ± SD), Baseline” value [3, 4] was 6.81 ± 0.74 g, the “Von Frey Filament Test Values (Mean ± SD), 15 min” value [3, 5] was 7.12 ± 1.20 g and the “Von Frey Filament Test Values (Mean ± SD), 2 h” value [3, 5] was 7.69 ± 1.59 g. The “Von Frey Filament Test Values (Mean ± SD), Baseline” value [3, 6] was 7.01 ± 0.75 g, the “Von Frey Filament Test Values (Mean ± SD), 15 min” value [3, 7] was 8.17 ± 1.50 g and the “Von Frey Filament Test Values (Mean ± SD), 2 h” value [3, 7] was 8.04 ± 1.83 g. The “Von Frey Filament Test Values (Mean ± SD), 5 h” value [3, 8] was 7.66 ± 1.72 g, the “Von Frey Values of Individual Animal, Day 14, 15 min” value [3, 11] was 7.3 g and 9.0 g and 8.3 g and 7.5 g and 9.6 g (2×) and 10.8 g and 7.0 g and 6.7 g and 8.2 g (2×) and 5.5 g and 5.6 g and 8.0 g and 10.5 g and 8.9 g and the “Von Frey Values of Individual Animal, Day 14, 2 h” value [3, 11] was 5.8 g and 7.3 g and 8.2 g and 7.0 g and 6.2 g and 7.1 g and 8.9 g (2×) and 7.2 g and 5.9 g (2×) and 8.5 g and 9.7 g and 8.8 g and 11.1 g and 12.1 g. For the same compound, the “Von Frey Values of Individual Animal, Day 14, 5 h” value [3, 11] was 6.6 g (2×) and 7.5 g (2×) and 7.1 g and 6.1 g and 5.9 g and 6.3 g and 8.8 g and 6.8 g and 5.8 g and 7.0 g and 8.7 g and 9.9 g and 11.7 g and 10.3 g, the “Von Frey Values of Individual Animal, Day 7, 15 min” value [3, 12] was 7.6 g (2×) and 7.5 g (2×) and 6.8 g and 6.6 g and 5.5 g and 8.2 g and 5.9 g and 7.9 g and 4.6 g and 5.3 g and 9.0 g and 8.9 g and 7.8 g and 7.2 g and the “Von Frey Values of Individual Animal, Day 7, 2 h” value [3, 12] was 9.3 g (2×) and 8.8 g and 9.4 g (2×) and 8.6 g and 6.5 g (3×) and 5.8 g and 5.9 g (2×) and 7.4 g and 5.5 g and 8.4 g and 9.8 g. The “First Baseline, Von Frey, individual animal” value ([3]; individual animal, pretreatment day 7, two repeated stimuli per animal) was 7.4 g and 5.4 g and 6.2 g and 6.1 g (2×) and 6.4 g and 6.3 g and 5.5 g and 7.5 g and 7.0 g and 7.3 g and 6.7 g and 7.6 g (2×) and 8.1 g and 7.7 g and the “Second Baseline, Von Frey, individual animal” value ([3]; individual animal, pretreatment day 14 after washing-out, two repeated stimuli per animal) was 7.6 g (2×) and 7.7 g and 6.4 g and 6.2 g (2×) and 5.5 g and 5.7 g and 7.1 g and 7.9 g and 7.0 g and 7.3 g and 7.2 g (2×) and 8.1 g and 7.5 g.
